From patent publication US7456197B2, “Pyridinium cationic lipids as gene transfer agents” (The Texas A&M University System, priority 2003, dated 2008)

Columns and labels:
[1] = tested on: prostate carcinoma DU-145; experiment: Luciferase (pGL3) transfection efficiency of lipoplexes, DU-145; assay type: cell-based; settings: optimized lipoplexes, Chol 1:1, FIG. 7
From the text: (§1) It is well known that specific cell types and cell lines may vary in their ability to be transfected. In addition to the NCI-H23 lung cancer cell line, we therefore tested our optimized formulation of 5AMyr/Chol 1:1 versus DOTAP/Chol 1:1 as reference on four other cell lines from tumors representing cancers of great importance to human health, as well as different tissues of origin: breast carcinomas MCF-7, MDA-Mb231, prostate carcinoma DU-145 and glioma SWB-95 (FIG. 7).
(§2) Dioleoylphosphatidylethanolamine (DOPE), cholesterol (CHOL), N-(2,3-dioleoyloxypropyl)-N,N,N-trimethylammonium chloride (DOTAP) were commercial products. The purity of the lipids was checked by thin layer chromatography and also by differential scanning calorimetry (DSC), which was also used for determining the critical temperature Tc. For the preparation of the liposomes a protocol optimized for this type of compounds was adopted as follows. The cationic lipid (with or without helper lipid) was dissolved in chloroform/methanol (2/1, v/v) to reach a final concentration of 1 mM for the charged species. […]
(§3) For the luciferase assay, 20 μL of cell lysate was aliquoted in a test tube and assessed directly using a luciferase assay kit from Promega by means of a luminometer.
(§4) The protein content was quantified using a bicinchoninic acid (BCA) assay. […]

[2] = tested on: lung cancer cell line NCI-H23; experiment: Luciferase (pGL3) transfection efficiency of lipoplexes, NCI-H23; assay type: cell-based, human; settings: exposure from one hour to three hours; data not shown
[3] = Critical (phase transition) temperature Tc by differential scanning calorimetry; assay type: physicochemical
Procedure, shortened: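 Phase transition temperature Tc of the cationic lipids measured by differential scanning calorimetry at a heating rate of 5 °C/minute.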

[4] = tested on: breast carcinoma MCF-7; experiment: Luciferase (pGL3) transfection efficiency of lipoplexes, MCF-7; assay type: cell-based; settings: optimized lipoplexes, Chol 1:1, FIG. 7
From the text: as §1, §2, §3, §4

With `CCCCCCCCCCCCCC(=O)OCC(COC(=O)CCCCCCCCCCCCC)[n+]1c(C)cc(C)cc1C.F[P-](F)(F)(F)(F)F` [Lipid 5AMyr, 1-(1,3-dimyristoyloxypropane-2-yl)-2,4,6-trimethylpyridinium hexafluorophosphate] the “transfection efficiency (luciferase activity normalized for protein)” value [1] was 327 RLU/μg of protein, the “transfection efficiency on longer cell exposure to lipoplexes” value [2] was “higher transfection efficiencies” and the “Tc (critical temperature), Pure” value ([3]; pure lipid) was 67.8 °C. For the same molecule, the “Tc (critical temperature), With DOPE (1:1 molar ratio)” value ([3]; with DOPE, 1:1 molar ratio) was 22.4 °C, the “Tc (critical temperature), With cholesterol (1:1 molar ratio)” value ([3]; with cholesterol, 1:1 molar ratio) was 64.8 °C and the “transfection efficiency (luciferase activity normalized for protein)” value [4] was 206000 RLU/μg of protein.
